Data published in publication PMC7265341, “Quantifying CDK inhibitor selectivity in live cells” (Nature Communications, 2020).
Read-outs that look alike come from different tables or passages of the source.

Experiments:
[1] = biological target: CDK11B/Cyclin L2 (Homo sapiens, UniProt P21127); assay: NanoBRET live-cell target engagement, CDK11B-NanoLuc/Cyclin L2 in HEK-293; type: binding; conditions: CDK11b/L2, read-out: Inhibition at 10µM (%)
[2] = biological target: CDK9/Cyclin K (Homo sapiens, UniProt P50750); assay: NanoBRET live-cell target engagement, NanoLuc-CDK9/Cyclin K in HEK-293; type: binding; conditions: CDK9/K, read-out: Inhibition at 10µM (%)
[3] = biological target: CDK7 (Homo sapiens, UniProt P50613); assay: NanoBRET live-cell target engagement, NanoLuc-CDK7 in HEK-293; type: binding; conditions: CDK7; for IC50: read-out: IC50; for inhibition at 10 µM: read-out: Inhibition at 10µM (%)
[4] = biological target: CDK2/Cyclin E1 (Homo sapiens, UniProt P24941); assay: NanoBRET live-cell target engagement, CDK2-NanoLuc/Cyclin E1 in HEK-293; type: binding; conditions: read-out: Inhibition at 10µM (%), CDK2/E1
[5] = biological target: CDK18/Cyclin Y (Homo sapiens, UniProt Q07002); assay: NanoBRET live-cell target engagement, CDK18-NanoLuc/Cyclin Y in HEK-293; type: binding; conditions: CDK18/Y, read-out: Inhibition at 10µM (%)
[6] = biological target: CDK6/Cyclin D1 (Homo sapiens, UniProt Q00534); assay: NanoBRET live-cell target engagement, NanoLuc-CDK6/Cyclin D1 in HEK-293; type: binding; conditions: CDK6/D1; for IC50: read-out: IC50; for inhibition at 10 µM: read-out: Inhibition at 10µM (%)
[7] = biological target: CDK10/Cyclin L2 (Homo sapiens, UniProt Q15131); assay: NanoBRET live-cell target engagement, CDK10-NanoLuc/Cyclin L2 in HEK-293; conditions: read-out: Inhibition at 10µM (%), CDK10/L2
[8] = biological target: CDK4/Cyclin D1 (Homo sapiens, UniProt P11802); assay: NanoBRET live-cell target engagement, NanoLuc-CDK4/Cyclin D1 in HEK-293; type: binding; conditions: CDK4/D1; for IC50: read-out: IC50; for inhibition at 10 µM: read-out: Inhibition at 10µM (%)
[9] = biological target: CDK15/Cyclin Y (Homo sapiens, UniProt Q96Q40); assay: NanoBRET live-cell target engagement, NanoLuc-CDK15/Cyclin Y in HEK-293; type: binding; conditions: CDK15/Y, read-out: Inhibition at 10µM (%)
[10] = biological target: CDK13/Cyclin K (Homo sapiens, UniProt Q14004); assay: NanoBRET live-cell target engagement, CDK13-NanoLuc/Cyclin K in HEK-293; type: binding; conditions: CDK13/K, read-out: Inhibition at 10µM (%)
[11] = biological target: CDK20/Cyclin H (Homo sapiens, UniProt Q8IZL9); assay: NanoBRET live-cell target engagement, NanoLuc-CDK20/Cyclin H in HEK-293; type: binding; conditions: CDK20/H, read-out: Inhibition at 10µM (%)
[12] = biological target: CDK19/Cyclin C (Homo sapiens, UniProt Q9BWU1); assay: NanoBRET live-cell target engagement, NanoLuc-CDK19/Cyclin C in HEK-293; conditions: read-out: Inhibition at 10µM (%), CDK19/C
[13] = biological target: CDK16/Cyclin Y (Homo sapiens, UniProt Q00536); assay: NanoBRET live-cell target engagement, CDK16-NanoLuc/Cyclin Y in HEK-293; type: binding; conditions: CDK16/Y; for IC50: read-out: IC50; for inhibition at 10 µM: read-out: Inhibition at 10µM (%)
[14] = biological target: CDK5/CDK5R1 (Homo sapiens, UniProt Q00535); assay: NanoBRET live-cell target engagement, CDK5-NanoLuc/CDK5R1 in HEK-293; type: binding; conditions: CDK5/CDK5R1, read-out: Inhibition at 10µM (%)
[15] = biological target: CDK17/Cyclin Y (Homo sapiens, UniProt Q00537); assay: NanoBRET live-cell target engagement, CDK17-NanoLuc/Cyclin Y in HEK-293; type: binding; conditions: CDK17/Y, read-out: Inhibition at 10µM (%)
[16] = biological target: CDK1/Cyclin E1 (Homo sapiens, UniProt P06493); assay: NanoBRET live-cell target engagement, CDK1-NanoLuc/Cyclin E1 in HEK-293; type: binding; conditions: CDK1/E1, read-out: Inhibition at 10µM (%)
[17] = biological target: T1, CDK11A/Cyclin L2 (Homo sapiens, UniProt Q9UQ88); assay: NanoBRET live-cell target engagement, CDK11A-NanoLuc/Cyclin L2 in HEK-293; type: binding; conditions: CDK11a/L2, read-out: Inhibition at 10µM (%)
T1 sequence (Q9UQ88 1-783): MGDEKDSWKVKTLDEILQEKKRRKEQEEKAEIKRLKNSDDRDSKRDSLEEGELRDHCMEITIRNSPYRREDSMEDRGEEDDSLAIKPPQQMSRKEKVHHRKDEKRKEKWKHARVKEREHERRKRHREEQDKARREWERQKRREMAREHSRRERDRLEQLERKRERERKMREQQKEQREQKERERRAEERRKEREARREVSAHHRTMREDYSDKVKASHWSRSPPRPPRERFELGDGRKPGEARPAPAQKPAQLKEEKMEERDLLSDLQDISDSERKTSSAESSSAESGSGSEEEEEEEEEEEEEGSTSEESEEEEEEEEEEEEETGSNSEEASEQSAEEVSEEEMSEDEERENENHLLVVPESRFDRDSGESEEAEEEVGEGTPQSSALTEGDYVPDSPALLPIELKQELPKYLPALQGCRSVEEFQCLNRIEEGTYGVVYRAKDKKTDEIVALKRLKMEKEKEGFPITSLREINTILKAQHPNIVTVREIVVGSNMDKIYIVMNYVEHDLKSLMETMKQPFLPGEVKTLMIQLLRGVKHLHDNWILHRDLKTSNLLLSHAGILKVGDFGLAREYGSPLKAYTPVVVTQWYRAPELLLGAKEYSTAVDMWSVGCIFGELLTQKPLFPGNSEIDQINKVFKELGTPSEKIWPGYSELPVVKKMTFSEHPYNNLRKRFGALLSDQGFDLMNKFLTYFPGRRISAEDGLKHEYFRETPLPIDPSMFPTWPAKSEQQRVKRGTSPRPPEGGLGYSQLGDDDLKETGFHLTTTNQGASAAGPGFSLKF

[18] = biological target: CDK8/Cyclin C (Homo sapiens, UniProt P49336); assay: NanoBRET live-cell target engagement, NanoLuc-CDK8/Cyclin C in HEK-293; type: binding; conditions: CDK8/C, read-out: Inhibition at 10µM (%)
[19] = biological target: CDK14/Cyclin Y (Homo sapiens, UniProt O94921); assay: NanoBRET live-cell target engagement, CDK14-NanoLuc/Cyclin Y in HEK-293; type: binding; conditions: CDK14/Y, read-out: Inhibition at 10µM (%)

Sequence of CDK11B/Cyclin L2 (P21127 1-782 isoform P21127-2): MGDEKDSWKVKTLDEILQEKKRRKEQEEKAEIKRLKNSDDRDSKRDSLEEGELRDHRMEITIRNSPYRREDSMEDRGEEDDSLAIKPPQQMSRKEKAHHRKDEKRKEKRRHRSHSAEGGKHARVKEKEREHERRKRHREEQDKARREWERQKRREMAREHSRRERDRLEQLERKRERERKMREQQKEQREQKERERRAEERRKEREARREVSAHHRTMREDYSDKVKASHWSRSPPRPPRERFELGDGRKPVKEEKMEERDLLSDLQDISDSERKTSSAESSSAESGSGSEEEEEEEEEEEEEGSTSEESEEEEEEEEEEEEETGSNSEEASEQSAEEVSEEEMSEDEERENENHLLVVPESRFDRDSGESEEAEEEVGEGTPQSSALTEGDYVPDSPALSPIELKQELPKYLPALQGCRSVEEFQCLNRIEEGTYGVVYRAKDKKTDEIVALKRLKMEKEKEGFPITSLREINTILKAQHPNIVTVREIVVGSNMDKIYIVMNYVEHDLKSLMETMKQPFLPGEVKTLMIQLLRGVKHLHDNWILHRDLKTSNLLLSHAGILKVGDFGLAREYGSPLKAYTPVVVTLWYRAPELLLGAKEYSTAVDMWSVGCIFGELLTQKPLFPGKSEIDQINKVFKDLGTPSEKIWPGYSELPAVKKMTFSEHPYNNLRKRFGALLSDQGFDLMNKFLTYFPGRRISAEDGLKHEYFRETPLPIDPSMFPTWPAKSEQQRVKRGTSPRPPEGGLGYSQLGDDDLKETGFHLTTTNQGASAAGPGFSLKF
Sequence of CDK17/Cyclin Y (Q00537 whole entry): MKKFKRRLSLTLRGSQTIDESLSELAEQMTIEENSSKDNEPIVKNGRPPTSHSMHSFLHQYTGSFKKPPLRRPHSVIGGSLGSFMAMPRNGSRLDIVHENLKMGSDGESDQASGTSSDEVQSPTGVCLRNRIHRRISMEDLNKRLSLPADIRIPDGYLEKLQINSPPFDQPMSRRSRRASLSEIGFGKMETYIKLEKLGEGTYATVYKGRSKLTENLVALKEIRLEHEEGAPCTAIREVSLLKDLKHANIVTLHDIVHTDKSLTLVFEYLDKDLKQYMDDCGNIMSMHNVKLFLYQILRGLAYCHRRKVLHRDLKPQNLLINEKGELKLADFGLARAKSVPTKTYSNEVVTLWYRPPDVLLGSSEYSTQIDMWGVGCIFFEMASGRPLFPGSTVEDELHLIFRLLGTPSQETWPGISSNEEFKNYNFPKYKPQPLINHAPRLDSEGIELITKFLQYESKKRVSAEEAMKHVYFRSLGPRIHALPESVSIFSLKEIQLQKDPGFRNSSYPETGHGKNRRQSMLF
Sequence of CDK17/Cyclin Y (Q8ND76 whole entry partner): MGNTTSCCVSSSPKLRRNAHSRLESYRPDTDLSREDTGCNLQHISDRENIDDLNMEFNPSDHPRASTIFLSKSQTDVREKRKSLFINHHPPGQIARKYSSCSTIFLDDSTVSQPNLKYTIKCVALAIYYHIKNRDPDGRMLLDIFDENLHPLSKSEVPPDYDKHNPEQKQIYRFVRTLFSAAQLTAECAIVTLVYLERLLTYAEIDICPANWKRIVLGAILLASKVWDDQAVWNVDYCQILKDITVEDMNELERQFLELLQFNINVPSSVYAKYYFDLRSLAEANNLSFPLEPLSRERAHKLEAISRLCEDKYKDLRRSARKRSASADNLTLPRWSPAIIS
Sequence of CDK10/Cyclin L2 (Q15131 whole entry): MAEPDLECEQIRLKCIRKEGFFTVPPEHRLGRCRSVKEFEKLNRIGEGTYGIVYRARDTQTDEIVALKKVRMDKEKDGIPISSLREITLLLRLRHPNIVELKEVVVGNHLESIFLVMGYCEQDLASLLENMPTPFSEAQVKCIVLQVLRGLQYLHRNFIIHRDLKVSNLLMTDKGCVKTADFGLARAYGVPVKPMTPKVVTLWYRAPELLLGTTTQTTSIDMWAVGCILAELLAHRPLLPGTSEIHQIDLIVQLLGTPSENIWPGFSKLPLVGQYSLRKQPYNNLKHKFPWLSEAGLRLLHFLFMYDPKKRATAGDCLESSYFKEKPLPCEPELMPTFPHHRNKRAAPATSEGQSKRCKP
Sequence of CDK13/Cyclin K (O75909 whole entry): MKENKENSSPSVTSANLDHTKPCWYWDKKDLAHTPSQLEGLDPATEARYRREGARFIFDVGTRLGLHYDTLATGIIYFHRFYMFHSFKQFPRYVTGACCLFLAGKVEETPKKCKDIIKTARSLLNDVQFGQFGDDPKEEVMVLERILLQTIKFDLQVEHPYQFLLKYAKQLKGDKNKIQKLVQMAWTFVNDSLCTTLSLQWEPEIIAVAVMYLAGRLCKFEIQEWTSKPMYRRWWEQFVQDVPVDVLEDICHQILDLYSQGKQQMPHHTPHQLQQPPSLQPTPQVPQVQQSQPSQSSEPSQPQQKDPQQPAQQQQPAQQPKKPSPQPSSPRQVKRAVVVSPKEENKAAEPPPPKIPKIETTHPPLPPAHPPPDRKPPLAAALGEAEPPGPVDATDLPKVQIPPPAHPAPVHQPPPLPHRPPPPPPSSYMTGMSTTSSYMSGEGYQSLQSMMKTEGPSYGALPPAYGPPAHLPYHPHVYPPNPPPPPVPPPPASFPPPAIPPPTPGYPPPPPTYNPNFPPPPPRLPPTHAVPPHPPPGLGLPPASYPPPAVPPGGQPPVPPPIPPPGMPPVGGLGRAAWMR
Sequence of CDK13/Cyclin K (Q14004 other isoform, or with tags, fused parts or gaps): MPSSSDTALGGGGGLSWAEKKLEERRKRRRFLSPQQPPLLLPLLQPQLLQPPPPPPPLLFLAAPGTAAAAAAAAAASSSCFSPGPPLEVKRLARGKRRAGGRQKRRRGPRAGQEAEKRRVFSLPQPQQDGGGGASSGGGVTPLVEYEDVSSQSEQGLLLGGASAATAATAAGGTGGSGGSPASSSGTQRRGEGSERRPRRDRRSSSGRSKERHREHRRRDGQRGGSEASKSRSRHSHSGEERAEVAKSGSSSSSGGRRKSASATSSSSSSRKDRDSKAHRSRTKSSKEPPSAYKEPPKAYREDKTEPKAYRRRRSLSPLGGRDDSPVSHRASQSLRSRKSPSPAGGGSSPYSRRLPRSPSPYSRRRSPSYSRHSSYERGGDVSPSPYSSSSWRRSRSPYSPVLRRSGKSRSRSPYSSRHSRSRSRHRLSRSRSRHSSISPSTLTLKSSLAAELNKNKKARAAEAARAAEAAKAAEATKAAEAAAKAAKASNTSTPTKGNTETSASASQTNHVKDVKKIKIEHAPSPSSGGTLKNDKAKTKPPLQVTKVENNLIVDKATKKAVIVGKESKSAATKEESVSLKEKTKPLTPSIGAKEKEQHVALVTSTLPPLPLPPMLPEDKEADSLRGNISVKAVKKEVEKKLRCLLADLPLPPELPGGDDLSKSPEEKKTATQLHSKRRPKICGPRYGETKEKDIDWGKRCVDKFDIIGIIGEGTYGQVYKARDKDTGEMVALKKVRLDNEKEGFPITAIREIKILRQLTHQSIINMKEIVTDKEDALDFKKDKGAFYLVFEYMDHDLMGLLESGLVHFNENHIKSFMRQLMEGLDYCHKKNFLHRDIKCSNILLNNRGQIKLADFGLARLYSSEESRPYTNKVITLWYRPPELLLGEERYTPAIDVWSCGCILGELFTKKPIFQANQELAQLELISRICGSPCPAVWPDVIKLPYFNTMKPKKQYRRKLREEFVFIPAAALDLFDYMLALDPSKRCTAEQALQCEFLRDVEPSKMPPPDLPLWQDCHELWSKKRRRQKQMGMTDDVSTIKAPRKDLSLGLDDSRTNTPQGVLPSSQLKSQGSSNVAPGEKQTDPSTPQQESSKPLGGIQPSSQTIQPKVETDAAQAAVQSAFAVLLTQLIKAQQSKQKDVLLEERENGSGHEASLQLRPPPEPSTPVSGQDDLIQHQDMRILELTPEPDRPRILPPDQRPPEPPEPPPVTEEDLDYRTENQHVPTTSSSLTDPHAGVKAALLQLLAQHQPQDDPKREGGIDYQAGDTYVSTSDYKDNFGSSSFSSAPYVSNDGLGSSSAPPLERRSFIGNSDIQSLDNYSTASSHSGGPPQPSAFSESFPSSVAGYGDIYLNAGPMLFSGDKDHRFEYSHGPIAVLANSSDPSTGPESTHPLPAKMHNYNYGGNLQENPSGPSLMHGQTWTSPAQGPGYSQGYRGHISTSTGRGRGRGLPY
Sequence of CDK19/Cyclin C (Q9BWU1 whole entry): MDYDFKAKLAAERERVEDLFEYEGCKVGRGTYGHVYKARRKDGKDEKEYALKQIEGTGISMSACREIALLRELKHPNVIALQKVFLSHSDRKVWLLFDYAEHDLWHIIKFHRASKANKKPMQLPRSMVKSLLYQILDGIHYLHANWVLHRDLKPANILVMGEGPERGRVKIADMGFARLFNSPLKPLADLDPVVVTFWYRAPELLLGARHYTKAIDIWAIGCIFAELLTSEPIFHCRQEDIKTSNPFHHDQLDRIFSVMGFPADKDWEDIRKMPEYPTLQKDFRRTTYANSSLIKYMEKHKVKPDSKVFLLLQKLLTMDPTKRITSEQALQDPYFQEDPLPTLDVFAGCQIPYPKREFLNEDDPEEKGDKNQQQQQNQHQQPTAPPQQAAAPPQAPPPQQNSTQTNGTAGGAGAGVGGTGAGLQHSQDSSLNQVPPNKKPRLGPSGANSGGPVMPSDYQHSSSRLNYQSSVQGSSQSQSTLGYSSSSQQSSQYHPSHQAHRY
Sequence of CDK19/Cyclin C (P24863 whole entry partner): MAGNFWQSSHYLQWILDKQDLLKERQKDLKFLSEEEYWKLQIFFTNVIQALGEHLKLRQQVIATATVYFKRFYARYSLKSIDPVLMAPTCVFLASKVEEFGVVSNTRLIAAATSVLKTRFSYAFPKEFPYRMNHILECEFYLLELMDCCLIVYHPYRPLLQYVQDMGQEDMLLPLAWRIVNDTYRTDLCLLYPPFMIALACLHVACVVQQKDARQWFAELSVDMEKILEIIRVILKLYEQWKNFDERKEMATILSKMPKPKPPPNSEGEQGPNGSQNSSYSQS

inhibition at 10 µM ([1]; average): 52.5% | inhibition at 10 µM ([1]; experiment 1): 32.8% | inhibition at 10 µM ([1]; experiment 2): 72.2% | inhibition at 10 µM ([2]; average): 29.7% | inhibition at 10 µM ([2]; experiment 1): 29.8% | inhibition at 10 µM ([2]; experiment 2): 29.7% | IC50 ([3]; average (± SEM where n=3)): 820 nM | inhibition at 10 µM ([3]; average): 50.4% | IC50 ([3]; experiment 1): 760 nM | inhibition at 10 µM ([3]; experiment 1): 28.7% | IC50 ([3]; experiment 2): 880 nM | inhibition at 10 µM ([3]; experiment 2): 72.1% | inhibition at 10 µM ([4]; average): 17.7% | inhibition at 10 µM ([4]; experiment 1): 12.1% | inhibition at 10 µM ([4]; experiment 2): 23.4% | inhibition at 10 µM ([5]; average): 18.4% | inhibition at 10 µM ([5]; experiment 1): 14.9% | inhibition at 10 µM ([5]; experiment 2): 21.8% | IC50 ([6]; average (± SEM where n=3)): 320 nM | inhibition at 10 µM ([6]; average): 50.9% | IC50 ([6]; experiment 1): 318 nM | inhibition at 10 µM ([6]; experiment 1): 50.7% | IC50 ([6]; experiment 2): 314 nM | inhibition at 10 µM ([6]; experiment 2): 51.1% | inhibition at 10 µM ([7]; average): 16.4% | inhibition at 10 µM ([7]; experiment 1): 15.4% | inhibition at 10 µM ([7]; experiment 2): 17.3% | IC50 ([8]; average (± SEM where n=3)): 650 nM | inhibition at 10 µM ([8]; average): 45.1% | IC50 ([8]; experiment 1): 561 nM | inhibition at 10 µM ([8]; experiment 1): 53.4% | IC50 ([8]; experiment 2): 746 nM | inhibition at 10 µM ([8]; experiment 2): 36.9% | inhibition at 10 µM ([9]; average): 8.1% | inhibition at 10 µM ([9]; experiment 1): 12.2% | inhibition at 10 µM ([9]; experiment 2): 4% | inhibition at 10 µM ([10]; average): 3.2% | inhibition at 10 µM ([10]; experiment 1): 4.9% | inhibition at 10 µM ([10]; experiment 2): 1.4% | inhibition at 10 µM ([11]; experiment 1): 10.6% | inhibition at 10 µM ([11]; experiment 2): -4.4% | inhibition at 10 µM ([12]; average): 6.1% | inhibition at 10 µM ([12]; experiment 1): 10.6% | inhibition at 10 µM ([12]; experiment 2): 1.6% | IC50 ([13]; average (± SEM where n=3)): 450 nM | IC50 ([13]; experiment 1): 177 nM | inhibition at 10 µM ([13]; experiment 1): 31.8% | IC50 ([13]; experiment 2): 730 nM | inhibition at 10 µM ([13]; experiment 2): 64.3% | inhibition at 10 µM ([14]; experiment 1): 7.6% | inhibition at 10 µM ([14]; experiment 2): 10% | inhibition at 10 µM ([15]; average): 43.1% | inhibition at 10 µM ([15]; experiment 1): 26.9% | inhibition at 10 µM ([15]; experiment 2): 59.3% | inhibition at 10 µM ([16]; average): 20% | inhibition at 10 µM ([16]; experiment 1): 32.3% | inhibition at 10 µM ([16]; experiment 2): 7.8% | inhibition at 10 µM ([17]; average): 26.4% | inhibition at 10 µM ([17]; experiment 1): 31.7% | inhibition at 10 µM ([17]; experiment 2): 21.1% | inhibition at 10 µM ([18]; average): 2.5% | inhibition at 10 µM ([18]; experiment 1): 15.9% | inhibition at 10 µM ([18]; experiment 2): -10.8% | inhibition at 10 µM ([19]; average): 16.5% | inhibition at 10 µM ([19]; experiment 1): 15.4% | inhibition at 10 µM ([19]; experiment 2): 17.7%
SMILES: N#CCNC(=O)c1ccc(-c2ccnc(Nc3ccc(N4CCOCC4)cc3)n2)cc1 [Momelotinib]
